Data reported in patent US20100197628A1, “METHODS OF TREATING PSYCHIATRIC, SUBSTANCE ABUSE, AND OTHER DISORDERS USING COMBINATIONS CONTAINING OMEGA-3 FATTY ACIDS” (priority 2003, published 2010).
Entries after “also recorded” stand apart in the source; their conditions may differ. Structures can show the parent of a compound that is named as a salt.

How the values were obtained:
male Sprague-Dawley rats = assay: Forced swim test (FST): latency to become immobile and behavioral sampling; format: in vivo, rat; settings: re-test (day 2), DMI 10 mg/kg, FLX 20 mg/kg; for latency to become immobile: 3 IP injections, CIT 5.0 mg/kg; for occurrences of climbing (behavioral sampling) / occurrences of swimming (behavioral sampling) / occurrences of immobility (behavioral sampling): CIT 5.0 mg/kg IP
Protocol: The behavioral effects of the combination of uridine and omega-3 fatty acids were also evaluated in rats using the forced swim test (FST). This assay identifies in rodents treatments that have antidepressant effects in humans (Porsolt et al. Nature 266:730-732 1977; Carlezon et al. Biol. Psychiatry 51:882-889, 2002). Uridine was administered using systemic injection while omega-3 fatty acids were administered by supplementation within the diet for various periods of time (3, 10, or 30 days). The effects of uridine in rats maintained on the omega-3 fatty acid-enriched diet were also evaluated to determine if these effects were additive. […] The efficacy of each treatment in the FST was evaluated using two separate scoring methods: latency to become immobile, a simple and rapid method that identifies agents with antidepressant effects ([…] et al. J Neurosci 21:7397-7403 2001), and behavioral sampling, a more complex method that differentiates antidepressant drugs according to their pharmacological mechanisms (Detke et al. Psychopharmacology 121:66-72 1995). Finally, treatments with antidepressant-like effects in the FST were evaluated for non-specific effects on activity in an open field, which might complicate interpretation of the data from the swimming studies. Rats: A total of 197 male Sprague-Dawley rats (Charles River Laboratories, Boston Mass.) were used in these studies. The rats were housed in groups of four and weighed 325-375 gm at the time of behavioral testing. Rats were maintained on a 12 h light (0700-1900 h)-12 h dark cycle with free access to food and water except during testing. Experiments were conducted in accordance with the 1996 Guide for the Care and Use of Laboratory Animals (NIH) and McLean Hospital policies. Drugs: Dosages of desipramine HCl (DMI), fluoxetine HCl (FLX), citalopram HBr (CIT), and uridine (URI) were administered in a distilled water vehicle (VEH) at a volume of 1 cc/kg. All drugs were purchased from RBI-Sigma (St. Louis, Mo.) except CIT, which was a gift of Forest Laboratories (New York, N.Y.). […] The diets were equivalent in overall fat, protein, carbohydrate, and caloric content. Forced Swim Test (FST): One hundred-sixty seven rats were used in the FST studies, which were conducted as described previously (Carlezon et al. Biol. Psychiatry 51:882-889, 2002) with minor modifications. The FST is a two-day procedure in which rats swim under conditions in which escape is not possible. On the first day, rats are placed in clear, 65 cm tall-25 cm diameter cylinders filled to 48 cm with 25° C. water. The rats initially struggle to escape from the water, but eventually they adopt a posture of immobility in which they make only the movements necessary to keep their heads above water. After 15 min of forced swimming, the rats are removed from the water, dried with towels, and placed in a warmed enclosure for 30 min. The cylinders are emptied and cleaned between rats. When the rats are re-tested 24 hours later under identical conditions in 5 min sessions, immobility is increased. Treatment with standard antidepressant drugs within the 24 hr period between the first exposure to forced swimming and re-testing can attenuate facilitated immobility, an effect correlated with antidepressant efficacy in humans (Porsolt et al. Nature 266:730-732 1977; Detke et al. Psychopharmacology 121:66-72 1995, Carlezon et al. Biol. Psychiatry 51:882-889, 2002). Rats tested with DMI, FLX, CIT, or URI received 3 separate intraperitoneal (IP) injections of drug (or VEH), at 1 hr, 19 hr, and 23 hr after the first exposure to forced swimming. This commonly used regimen is sensitive to the antidepressant-like effects of many standard agents (Porsolt et al. Nature 266:730-732 1977; Detke et al. Psychopharmacology 121:66-72 1995; Carlezon et al. Biol. Psychiatry 51:882-889, 2002). […] There were 7-12 rats per treatment condition, and separate rats were used for each treatment regimen. […]

depressed subjects = assay: 17-item Hamilton Depression Rating Scale (HDRS), eight weeks of treatment; format: in vivo, human
Protocol: In a second study, twelve depressed subjects (mean age 40) received 500 mg of an oral formulation of CDP-choline twice daily for eight weeks.

[1] = eight weeks, CDP-choline 500 mg twice daily, fluoxetine 20 mg/day

SMILES: CN(C)CCCC1(c2ccc(F)cc2)OCc2cc(C#N)ccc21 (stereo not shown) [CIT, citalopram HBr]
- latency to become immobile (male Sprague-Dawley rats; HBr): increased latencies to become immobile
- occurrences of climbing (behavioral sampling) (male Sprague-Dawley rats): without affecting climbing
- occurrences of swimming (behavioral sampling) (male Sprague-Dawley rats): increased swimming
- occurrences of immobility (behavioral sampling) (male Sprague-Dawley rats; HBr): reduced immobility; also recorded: decreased immobility

SMILES: CNCCCN1c2ccccc2CCc2ccccc21 [DMI, desipramine HCl]
- latency to become immobile (male Sprague-Dawley rats; HCl): increased latencies to become immobile
- occurrences of climbing (behavioral sampling) (male Sprague-Dawley rats; HCl): increased climbing; also recorded: increases in occurrences of climbing
- occurrences of immobility (behavioral sampling) (male Sprague-Dawley rats; HCl): reduced immobility; also recorded: decreases in occurrences of immobility
- occurrences of swimming (behavioral sampling) (male Sprague-Dawley rats; HCl): without affecting occurrences of swimming

SMILES: CNCCC(Oc1ccc(C(F)(F)F)cc1)c1ccccc1 (stereo not shown) [fluoxetine, fluoxetine HCl]
- mean 17-item HDRS score with eight weeks of treatment (depressed subjects; CDP-choline 500 mg oral twice daily, fluoxetine open label 20 mg/day, p<0.0001): 11±6
- mean 17-item HDRS score before treatment (depressed subjects; baseline, CDP-choline 12 subjects, fluoxetine 41 subjects): 21±4
- complete responses (subjects/total) (depressed subjects; [1]): 17/41
- complete responses, share of subjects (depressed subjects; [1]): 41%
- latency to become immobile (male Sprague-Dawley rats; listed as FLX, HCl): increased latencies to become immobile
- occurrences of climbing (behavioral sampling) (male Sprague-Dawley rats): without affecting climbing
- occurrences of swimming (behavioral sampling) (male Sprague-Dawley rats): increased swimming
- occurrences of immobility (behavioral sampling) (male Sprague-Dawley rats; listed as FLX, HCl): reduced immobility; also recorded: decreased immobility
